Data: the SangsterLogP compilation

What was measured:
[1] = method code SF-HPLC, from DOI: 10.1002/jps.2600830309, PMID: 8207673; settings: pH 7.5

SMILES | logD (pH 7.5) | further results
CCOc1c(OC)cc(I)c(O)c1C(=O)NC[C@@H]1CCCN1CC |  | logD (pH 7.4): 2.52
CCOc1ccc(I)c(O)c1C(=O)NC[C@@H]1CCCN1CC |  | logD [1]: 2.84
COc1cc(Br)cc(C(=O)NC[C@@H]2CCCN2CCF)c1OC | 3.22 | 
CCc1cc(Cl)c(O)c(C(=O)NC[C@@H]2CCCN2CCF)c1OC | 4.71 | 
